In US8080517B2, “Cell-permeable peptide inhibitors of the JNK signal transduction pathway” (Xigen SA, priority 2005, dated 2011):
[ ]: non-standard residue; d: D form.

Experiments:
βTC-3 cell cultures = type: cell-based
Experimental: The ability of the L- and D-enantiomeric forms of TAT and inventive TAT-IB1(s) peptides (“TAT-IB peptides”) to enter cells was evaluated. L-TAT, D-TAT, inventive L-TAT-IB1(s), and inventive D-TAT-IB1(s) peptides [SEQ ID NOs: 5, 6, 9 and 12, respectively] were labeled by N-terminal addition of a glycine residue conjugated to fluorescein. Labeled peptides (1 μM) were added to βTC-3 cell cultures, which were maintained as described in Example 3. At predetermined times cells were washed with PBS and fixed for five minutes in ice-cold methanol-acetone (1:1) before being examined under a fluorescence microscope. Fluorescein-labeled BSA (1 μM, 12 moles/mole BSA) was used as a control.
Little to no signal was present at 48 hours.
Fluorescent signals from these all-D retro-inverso peptides were still very strong 1 week later, and the signal was only slightly diminished at 2 weeks post treatment.

WiDr cells = assay: Irradiation (30 Gy) induced apoptosis; type: cell-based, human; settings: 1 μM added 30 minutes before 30 Gy, analyzed 48 hours later
Experimental: JNK is also activated by ionizing radiation. To determine whether inventive TAT-IB(s) peptides would provide protection against radiation-induced JNK damage, “WiDr” cells were irradiated (30 Gy) in presence or absence of D-TAT, inventive L-TAT-IB1(s) or inventive D-TAT-IB1(s) peptides (1 μM added 30 minutes before irradiation). Control cells (CTRL) were not irradiated. Cells were analyzed 48 hours later by means of PI and Hoechst 3342 staining, as described above. N=3, SEM are indicated.

AP-1 DNA binding complex = assay: Gel retardation assay with AP-1 probe, nuclear extracts of TNF-α treated HeLa cells; type: cell-based; settings: peptide added 30 minutes before TNF-α 5 ng/ml
βTC-3 cells = assay: IL-1β induced pancreatic β-cell death, peptide treatment, propidium iodide / Hoechst 33342 staining; type: cell-based; settings: for long term inhibition of IL-1β induced cell-death: IL-1β 10 ng/ml every two days, 15 days
Experimental: We investigated the effects of the inventive L-TAT-IB(s) peptides on the promotion of β-cell apoptosis elicited by IL-1. βTC-3 cell cultures were incubated for 30 minutes with 1 μM of inventive L-TAT-IB1(s) peptides followed by 10 ng/mL of IL-1. A second addition of peptide (1 μM) was performed 24 hours later. Apoptotic cells were counted after two days of incubation with IL-1 β using propidium iodide (red stained cell are dead cells) and Hoechst 33342 (blue stained cell are cells with intact plasma membrane) nuclear staining.
Long term inhibition of IL-1 induced cells death was examined by treating βTC-3 cells as described above, except that incubation of the cells with the peptides and IL-1 β was sustained for 12 days. Additional peptides (1 μM) were added each day and additional IL-1 β (10 ng/mL) was added every 2 days. […] Taken together, these experiments provide evidence that inventive TAT-IB(s) peptides are biologically active molecules able to prevent the effects of JNK signaling on cell fate.
Inhibition of IL-1 β induced pancreatic β-cell death by the inventive D-TAT-IB1(s) peptide was analyzed. βTC-3 cells were incubated as described above for 30 minutes with one single addition of the indicated peptides (1, μM), then IL-1 (10 ng/ml) was added.
Apoptotic cells were then counted after two days of incubation with IL-1 β by use of Propidium Iodide and Hoechst 33342 nuclear staining. A minimum of 1,000 cells were counted for each experiment. Standard Error of the Means (SEM) are indicated, n=5.
Long term inhibition of IL-1P induced cell-death by the D-TAT-IB1 peptide was also analyzed. βTC-3 cells were incubated as above for 30 minutes with one single addition of the indicated peptides (1 μM), then IL-1 β (10 ng/ml) was added, followed by addition of the cytokine every two days. Apoptotic cells were then counted after 15 days of incubation with IL-1 by use of propidium iodide and Hoechst 33342 nuclear staining. […] A minimum of 1.000 cells were counted for each experiment.

JNK = settings: JBDs; cited from earlier work
JNK3 = target: T1, JNK3 (Homo sapiens, UniProt P53779); assay: Solid phase kinase assay, JNK3 phosphorylation of Elk1; type: biochemical; settings: dose response 0-25 μM, GST-ELK1 (aa 307-428)
T1 construct: host or cells: cell-free: rabbit reticulocyte lysate transcription/translation
T1 sequence (P53779 whole entry, species assumed, the tested form may be a part): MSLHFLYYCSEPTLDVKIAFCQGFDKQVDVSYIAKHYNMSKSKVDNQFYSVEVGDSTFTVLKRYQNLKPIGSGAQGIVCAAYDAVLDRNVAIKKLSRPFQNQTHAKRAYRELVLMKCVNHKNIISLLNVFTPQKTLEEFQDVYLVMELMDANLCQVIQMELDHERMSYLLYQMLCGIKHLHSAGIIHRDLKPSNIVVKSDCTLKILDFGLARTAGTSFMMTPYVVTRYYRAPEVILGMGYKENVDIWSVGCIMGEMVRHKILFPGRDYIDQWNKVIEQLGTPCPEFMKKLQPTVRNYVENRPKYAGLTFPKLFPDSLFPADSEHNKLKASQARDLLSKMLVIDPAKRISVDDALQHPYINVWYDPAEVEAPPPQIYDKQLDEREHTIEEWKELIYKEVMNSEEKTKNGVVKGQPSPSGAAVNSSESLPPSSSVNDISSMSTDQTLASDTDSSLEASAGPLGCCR
Experimental: (§1) The effects of the peptides on JNKs-mediated phosphorylation of their target transcription factors were investigated in vitro. Recombinant and non activated JNK1, JNK2 and JNK3 were produced using a TRANSCRIPTION AND TRANSLATION rabbit reticulocyte lysate kit (Promega) and used in solid phase kinase assays with c-Jun, ATF2 and Elk1, either alone or fused to glutathione-S-transferase (GST), as substrates. Dose response studies were performed wherein inventive L-TAT or L-TAT-IB1(s) peptides (0-25 μM) were mixed with the recombinant JNK1, JNK2, or JNK3 kinases in reaction buffer (20 mM Tris-acetate, 1 mM EGTA, 10 mM p-nitrophenyl-phosphate (pNPP), 5 mM sodium pyrophosphate, 10 mM p-glycerophosphate, 1 mM dithiothreitol) for 20 minutes. The kinase reactions were then initiated by the addition of 10 mM MgCl2 and 5 pCi […] and 1 μg of either GST-Jun (aa 1-89), GST-AFT2 (aa 1-96) or GST-ELK1 (aa 307-428). GST-fusion proteins were purchased from Stratagene (La Jolla, Calif.).
Ten μL of glutathione-agarose beads were also added to the mixture. Reaction products were then separated by SDS-PAGE on a denaturing 10% polyacrylamide gel. […] The ability of D-TAT, inventive D-TAT-IB1(s) and inventive L-TAT-IB1(s) peptides (0-250 μM dosage study) to inhibit GST-Jun (aa 1-73) phosphorylation by recombinant JNK1, JNK2, and JNKS by were analyzed as described above. […]

[1] = tested on: recombinant JNK1, JNK2, or JNK3 kinases; assay: Solid phase kinase assay, phosphorylation of c-Jun, ATF2 and Elk1 by recombinant JNKs; type: biochemical
Experimental: as §1
Ten μL of glutathione-agarose beads were also added to the mixture. Reaction products were then separated by SDS-PAGE on a denaturing 10% polyacrylamide gel. Gels were dried and subsequently exposed to X-ray films (Kodak). […] The ability of D-TAT, inventive D-TAT-IB1(s) and inventive L-TAT-IB1(s) peptides (0-250 μM dosage study) to inhibit GST-Jun (aa 1-73) phosphorylation by recombinant JNK1, JNK2, and JNKS by were analyzed as described above. Overall, D-TAT-IB1(s) peptide decreased JNK-mediated phosphorylation of c-Jun, but at levels approximately 10-20 fold less efficiently than L-TAT-IB1(s).

activated JNKs = assay: c-Jun phosphorylation by activated JNKs pulled down with GST-Jun from UV-light irradiated HeLa cells or IL-1β treated βTC-3 cells; type: biochemical; settings: peptide 25 μM for 20 minutes
Experimental: The effects of the L-TAT or inventive L-TAT-IB1(s) peptides on JNKs activated by stressful stimuli were evaluated using GST-Jun to pull down JNKs from UV-light irradiated HeLa cells or IL-1 β treated PTC cells. PTC cells were cultured as described above. HeLa cells were cultured in DMEM medium supplemented with 10% Fetal Calf Serum, 100 μg/mL Streptomycin, 100 units/ml Penicillin and 2 mM Glutamine. One hour prior to being used for cell extract preparation, PTC cells were activated with IL-1 β as described above, whereas HeLa cells were activated by UV-light (20 J/m^2). Cell extracts were prepared from control, UV-light irradiated HeLa cells and IL-1β treated βTC-3 cells by scraping the cell cultures in lysis buffer (20 mM Tris-acetate, 1 mM EGTA, 1% Triton X-100, 10 mM p-nitrophenyl-phosphate, 5 mM sodium pyrophosphate, 10 mMP-glycerophosphate, 1 mM dithiothreitol). Debris was removed by centrifugation for five minutes at 15,000 rpm in an SS-34 Beckman rotor. One-hundred μg extracts were incubated for one hour at room temperature with one μg GST-jun (amino acids 1-89) and 10 μL of glutathione-agarose beads (Sigma). Following four washes with the scraping buffer, the beads were resuspended in the same buffer supplemented with L-TAT or inventive L-TAT-IB1(s) peptides (25 μM) for 20 minutes. […]

JNK signaling = assay: Heterologous GAL4 system (GAL-Jun / 5xGAL-LUC luciferase reporter) in HeLa cells with MKK4/MKK7 activation of JNK; type: cell-based; settings: peptide 1 μM
Excerpt: To determine whether the inventive cell-permeable peptides could block JNK signaling in vivo, we used a heterologous GAL4 system. HeLa cells, cultured as described above, were co-transfected with the 5×GAL-LUC reporter vector together with the GAL-Jun expression construct (Stratagene) comprising the activation domain of c-Jun (amino acids 1-89) linked to the GAL4 DNA-binding domain. Activation of JNK was achieved by the co-transfection of vectors expressing the directly upstream kinases MKK4 and MKK7 (see Whitmarsh et al., Science 285: 1578 (1999)). Briefly, 3×10^5 cells were transfected with the plasmids in 3.5-cm dishes using DOTAP (Boehringer Mannheim) following instructions from the manufacturer. For experiments involving GAL-Jun, 20 ng of the plasmid was transfected with 1 μg of the reporter plasmid pFR-Luc (Stratagene) and 0.5 μg of either MKK4 or MKK7 expressing plasmids. Three hours following transfection, cell media were changed and TAT and TAT-IB1(s) peptides (1 μM) were added. The luciferase activities were measured 16 hours later using the “Dual Reporter System” from Promega after normalization to protein content. […] Because HeLa cells express JNK1 and JNK2 isoforms but not JNK3, we transfected cells with JNK3.

[2] = Focal cerebral ischaemia, transient MCAO model, infarct volume; type: in vivo, male ICR-CD1 mice
Excerpt: Evaluation of neuroprotection by inventive chimeric peptides after iv administration against focal cerebral ischaemia, in a transient MCAO model (see FIG. 4).
Transient ischemia in adult mice. Using male ICR-CD1 mice (6 weeks old; 18-37 g; Harlan), we provoked ischemia by introducing a filament from the common carotid artery into the internal carotid and advancing it into the arterial circle, thereby occluding the middle cerebral artery. We measured regional cerebral blood flow by laser Doppler flowmetry, with a probe fixed on the skull throughout the ischemia until 10 min after reperfusion. Rectal temperature was measured and maintained at 37° C. The mice were killed 48 h after reperfusion. Serial cryostat sections 20 μm thick were traced using a computer-microscope system equipped with the Neurolucida program (MicroBrightField) and the volumes of the ischemic area and of the whole brain were calculated (blinded) with the Neuroexplorer program. XG−102 0.3=0.3 mg/kg,XG−102 1=1 mg/kg, XG−102 5=5 mg/kg
The infarct volume sizes (mm^3) after bolus iv administration of placebo and XG-102 0.3, […] 6 hours after reperfusion (30 minutes clamp) in an adult mice model were as follows.

NH2-RRRQRRKKRG-COOH (D-amino acids) [D-TAT, reference compound]
stability inside the cells (βTC-3 cell cultures): extremely stable inside the cells

NH2-GRKKRRQRRRPPRPKRPTTLNLFPQVPRSQD-COOH (H-GRKKRRQRRRPPRPKRPTTLNLFPQVPRSQD-OH) [L-TAT-IB1(s)]
prevention of irradiation induced apoptosis (WiDr cells): able to prevent irradiation induced apoptosis
formation of the AP-1 DNA binding complex (AP-1 DNA binding complex): decrease the formation of the AP-1 DNA binding complex in the presence of TNF-α
long term inhibition of IL-1β induced cell-death (βTC-3 cells; one single addition 1 μM): but not inventive L-TAT-IB1 (s), was able to confer long term (15 day) protection

TDQSRPVQPFLNLTTPRKPRYTDPPRRRQRRKKRG (TDQSRPVQPFLNLTTPRKPRYTDPPRRRQRRKKRG) [D-TAT-IB1, reference compound]
inhibition of IL-1β induced apoptosis (βTC-3 cells; one single addition 1 μM, IL-1 10 ng/ml, two days, n=5): decreased IL-1 induced apoptosis to a similar extent as L-TAT-IB peptides

PGTGCGDTYRPKRPTTLNLFPQVPRSQDT (PGTGCGDTYRPKRPTTLNLFPQVPRSQDT) [IB1-long]
efficiency in binding JNK relative to c-Jun or ATF2 (JNK): approximately 100 fold

IPSPSVEEPHKHRPTTLRLTTLGAQDS (IPSPSVEEPHKHRPTTLRLTTLGAQDS) [1B2-long]
efficiency in binding JNK relative to c-Jun or ATF2 (JNK): approximately 100 fold

NH2-GRKKRRQRRRPPRPKRPTTLNLFPQVPRSQD-COOH (H-GRKKRRQRRRPPRPKRPTTLNLFPQVPRSQD-OH) [TAT-IB(s)]
inhibition of JNK3 phosphorylation of Elk1 (JNK3): absence of TAT-IB(s) inhibition of JNKS phosphorylation of Elk1
inhibition of JNK family phosphorylation of target transcription factors, overall [1]: superior effects in inhibiting JNK family phosphorylation of their target transcription factors
peptide dose giving nearly complete inhibition of c-Jun, ATF2 and Elk1 phosphorylation by JNKs ([1]; dose response 0-25 μM, GST-Jun (aa 1-89), GST-AFT2 (aa 1-96), GST-ELK1 (aa 307-428)): ≥ 2.5 µM
prevention of c-Jun phosphorylation by activated JNKs (activated JNKs): efficiently prevented phosphorylation of c-Jun by activated JNKs
activation of c-Jun (luciferase) in cells transfected with JNK3 (JNK signaling; HeLa cells transfected with JNK3): inhibited JNK2 mediated activation of c-Jun
activation of c-Jun (luciferase) following MKK4 and MKK7 mediated activation of JNK (JNK signaling; luciferase 16 hours later): blocked activation of c-Jun following MKK4 and MKK7 mediated activation of JNK
inhibition of IL-1 induced apoptosis (βTC-3 cells; 1 μM, second addition at 24 hours, IL-1 10 ng/mL, two days): inhibited IL-1-induced apoptosis of βTC-3 cells
long term inhibition of IL-1 induced cell death (βTC-3 cells; 12 days, peptide 1 μM added each day, IL-1β 10 ng/mL every 2 days): confers strong protection against apoptosis
long term inhibition of IL-1β induced cell-death (βTC-3 cells; one single addition 1 μM, listed as TAT-IB 1): does not confer long-term protection

NH2-DQSRPVQPFLNLTTPRKPRPPRRRQRRKKRG-COOH (H-[dD][dQ][dS][dR][dP][dV][dQ][dP][dF][dL][dN][dL][dT][dT][dP][dR][dK][dP][dR][dP][dP][dR][dR][dR][dQ][dR][dR][dK][dK][dR]G-OH) [XG102]
infarct volume sizes, moyenne ([2]; 0.3 mg/kg bolus iv 6 hours after reperfusion (30 minutes clamp), n = 5, 48 h after reperfusion): 16 mm^3
infarct volume sizes, moyenne ([2]; 1 mg/kg bolus iv 6 hours after reperfusion (30 minutes clamp), n = 1, 48 h after reperfusion): 16 mm^3
infarct volume sizes, moyenne ([2]; XG102 3 group, bolus iv 6 hours after reperfusion (30 minutes clamp), n = 5, 48 h after reperfusion): 15 mm^3
